Here are results for 1 molecule from article PMC6273978, “Synthesis and Pharmacological Evaluation of Novel Pleuromutilin Derivatives with Substituted Benzimidazole Moieties” (Molecules, 2016).

The structures appear in SMILES notation. pIC50: −log10 of the molar value. Converted amounts (≈) assume the structure as drawn.

Test [1] relates to Escherichia coli (E. coli). The experiment in a line: MIC testing, agar dilution method. Type of test: cell-based. Conditions: 36.5 °C, 24–48 h. In a few lines:
(§1)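 MIC is the lowest drug level in Mueller-Hinton agar that inhibits growth of spotted bacteria after 24–48 h at 36.5 °C. Test solutions were serially halved from 1280 µg/mL to 0.625 µg/mL and poured into agar. Inocula were 10^5–10^6 CFU/mL, and runs were done in triplicate.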
(In general: In agar dilution, organisms are placed on agar that contains the substance at set levels.)

Test [2] relates to Methicillin-resistant Staphylococcus aureus (MRSA). The experiment in a line: MIC testing, agar dilution method. Type of test: cell-based. The following applies: 36.5 °C, 24–48 h. Put shortly: as §1
The subject of test [3] is Staphylococcus aureus (S. aureus). The experiment in a line: MIC testing, agar dilution method. Type of test: cell-based. Conditions: 36.5 °C, 24–48 h. Put shortly: as §1
Test [4] concerns Staphylococcus haemolyticus (S. haemolyticus). Put plainly: MIC testing, agar dilution method. In kind it is cell-based. Conditions: 36.5 °C, 24–48 h. Put shortly: as §1
Test [5] has as its system Staphylococcus vitulinus (S. vitulinus). The experiment in a line: MIC testing, agar dilution method. Type of test: cell-based. Conditions: Mammaliicoccus vitulinus, 36.5 °C, 24–48 h. In a few lines:
as §1

Test [6] relates to Staphylococcus warneri (S. warneri). The experiment in a line: MIC testing, agar dilution method. The following applies: 36.5 °C, 24–48 h. Type of test: cell-based. Put shortly:
as §1

A further test relates to E. coli. The experiment in a line: Oxford cup assay, zone of inhibition. Type of test: cell-based. The following applies: Escherichia coli. In a few lines:
(§2)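 Inocula in 0.9% saline adjusted to McFarland standard were spread on nutrient agar; compounds at 320 and 160 µg/mL were added to Oxford cups on the agar surface. Inhibition zones were measured after 24–36 h at 37 °C, in triplicate.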

For test [7], the system named is MRSA. The experiment in a line: Oxford cup assay, zone of inhibition. The following applies: Staphylococcus aureus. In kind it is cell-based. In a few lines:
as §2

The subject of test [8] is S. aureus. Put plainly: Oxford cup assay, zone of inhibition. Type of test: cell-based. Conditions: Staphylococcus aureus. In a few lines:
as §2

For a further test, the system named is S. haemolyticus. Put plainly: Oxford cup assay, zone of inhibition. Conditions: Staphylococcus haemolyticus. Type of test: cell-based. In a few lines: as §2
The next test concerns S. warneri. The experiment in a line: Oxford cup assay, zone of inhibition. Type of test: cell-based. Conditions: Staphylococcus warneri. Put shortly: as §2
Another test deals with S. vitulinus. The experiment in a line: Oxford cup assay, zone of inhibition. Conditions: Mammaliicoccus vitulinus. Type of test: cell-based, Staphylococcus vitulinus. Put shortly: as §2
Test [9] concerns MRSA. Put plainly: Inhibition of short-term bacterial growth (absorbance at 450 nm). Type of test: cell-based. Conditions: Staphylococcus aureus, 3.5 h incubation, Mueller-Hinton broth. How it is done:
(§3) Compound 3, being the best antibacterial derivative, was chosen for further evaluation on its antibacterial effect to inhibit short-term S. aureus and MRSA growth (Figure 2). This includes the GI50 of tiamulin fumarate for S. aureus and MRSA.
(§4) The inhibition activities of test compounds were evaluated by measuring the absorbance of the bacterial suspension. In brief, inoculums were prepared from blood slants and adjusted to approximately 10^6 CFU/mL in Muellere-Hinton broth. The 0.0625, 0.125, 0.25, 0.5, 1, and 2 µM of tested compounds were prepared and added to the prepared inoculums. A sample of inoculum with no compound was used as control. The absorbance of bacterial suspension at 450 nm was measured using an UV spectrophotometer after 3.5 h of incubation, and the inhibition was calculated as 1 − (A^P/A^0), where A^p and A^0 are the absorbance of bacterial suspension in the presence and absence of compounds, respectively. The same procedure was independently repeated in triplicate.

In test [10] the test system is S. aureus. Described as above. Type of test: cell-based. The following applies: Staphylococcus aureus, 3.5 h, read-out: GI50 S. aureus growth. The protocol: as §3, §4
Another test has as its target T1, CYP2C19 (Homo sapiens, UniProt P33261).
T1 construct: Twenty microliters of human liver microsomes (final concentration of 0.3 mg/mL); from tissue; host or cells: human liver microsomes
The experiment in a line: Cytochrome P450 inhibition cocktail assay, human liver microsomes. The following applies: probe mephenytoin, metabolite 4-OH-S-mephenytoin. Type of test: in vitro ADME. How it is done:
The cytochrome P450 (CYP) proteins form a large family of heme proteins that catalyze many reactions involved xenobiotic metabolism and biosynthesis of cholesterol, steroids, and other lipid components. Some chemicals could affect the disposition of conventional pharmaceuticals through the inhibition of CYP450 enzymes. […] The selective probe substrate concentrations were prepared near to its respective Km value, and the compound 3 concentration range is from […].
Compound 3 was screened for its ability to inhibit cytochrome P450 using a cocktail assay described previously. Briefly, 50 μL of compound 3 was added to 96-well plates, with final concentrations of 0.05, 0.1, 0.5, 1, 10, 50, and 100 μM, respectively. Twenty microliters of human liver microsomes (final concentration of 0.3 mg/mL) and 20 μL of probe substrates (Table 3) in 0.1 M Tris were added. After preincubation at 37 °C for 10 min, 10 μL of NADPH was added (final concentration of 1 mM), and the reaction started to incubate at the same temperature for 15 min. The reactions were then quenched by the addition of 100 μL of acetonitrile with a mixture of propranolol and nadolol (50 nM) used as an internal standard. After reactions were finished, the plates were centrifuged and the supernatants were analyzed for the five metabolites (Table 3) by LC/MS/MS.
A general note: Liver microsomes are vesicles of endoplasmic reticulum, rich in cytochrome P450 enzymes.

T1 sequence (P33261 whole entry): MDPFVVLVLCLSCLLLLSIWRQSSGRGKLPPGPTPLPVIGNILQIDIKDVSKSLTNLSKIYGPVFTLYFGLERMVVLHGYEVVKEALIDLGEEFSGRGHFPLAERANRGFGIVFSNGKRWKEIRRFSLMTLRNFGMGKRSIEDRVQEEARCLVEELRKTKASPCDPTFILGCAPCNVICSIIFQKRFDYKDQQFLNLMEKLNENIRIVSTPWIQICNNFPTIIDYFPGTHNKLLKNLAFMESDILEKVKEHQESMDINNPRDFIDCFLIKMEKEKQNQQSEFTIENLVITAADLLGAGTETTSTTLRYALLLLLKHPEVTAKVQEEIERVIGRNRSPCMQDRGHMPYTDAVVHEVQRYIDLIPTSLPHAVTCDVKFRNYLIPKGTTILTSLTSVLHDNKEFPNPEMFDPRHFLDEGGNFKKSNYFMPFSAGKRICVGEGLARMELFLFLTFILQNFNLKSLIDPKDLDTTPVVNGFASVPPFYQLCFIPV

For `C=C[C@]1(C)C[C@@H](OC(=O)CSc2nc3ccc(N)cc3[nH]2)[C@]2(C)[C@H](C)CC[C@]3(CCC(=O)[C@H]32)[C@@H](C)[C@@H]1O` [Compound 3, 14-O-((5-Amino-benzimidazole-2-yl)thioacetyl) Mutilin], the MIC in test [1] came to 10 µg/mL (≈ 19 µM); in [2] it was 0.156 µg/mL (≈ 0.297 µM); in [3], 0.156 µg/mL (≈ 0.297 µM); in test [4], 0.156 µg/mL (≈ 0.297 µM); in test [5], 0.156 µg/mL (≈ 0.297 µM); in test [6], 0.156 µg/mL (≈ 0.297 µM). For the same molecule, the zone of inhibition at 160 µg/mL with E. coli (160 µg/mL) was 21.4 mm; with MRSA [7] (160 µg/mL) it was 25.4 mm; in the test on S. aureus [8] (160 µg/mL) it was 27.3 mm; in the test on S. haemolyticus (160 µg/mL) it was 30.3 mm; with S. warneri (160 µg/mL), 28 mm; with S. vitulinus (160 µg/mL), 25.5 mm. Moreover, the zone of inhibition at 320 µg/mL with E. coli (320 µg/mL) turned out to be 25.5 mm; in the test on MRSA [7] (320 µg/mL), 30.6 mm; with S. aureus [8] (320 µg/mL) it was 29.6 mm; in the test on S. haemolyticus (320 µg/mL), 33 mm; in the test with S. warneri (320 µg/mL) it was 32.3 mm; in the test on S. vitulinus (320 µg/mL), 29.6 mm. The GI50 came out at 175 nM in the test on MRSA [9] and 98.7 nM in the test with S. aureus [10]. Also, the pIC50 on CYP2C19 is below 4.30.

A word on the MIC: it is the least concentration at which growth counts as inhibited. In general, zone of inhibition refers to the size of the clear area around the sample on an inoculated plate. A lower zone of inhibition goes with little suppression of growth. As a reminder, the GI50 is the concentration that inhibits growth by half. Broadly, the pIC50 is −log10 of the IC50, conventionally taken in molar units.
